Results on 74 compounds are retold here after ChEMBL document CHEMBL3507680, “University of Dundee, Gates Library screen for HepG2 cell viability”.

This series can be described thus: Human HepG2 cell viability assay in 384 well format. Type of series: toxicity, cell-based. The arrangement: dose 125 nL, time 70.5 hour; concentration not given beside the values. Conditions: HepG2 cells, read-out: Inhibition.
As to `CC(C)(CCS(C)(=O)=O)CNC(=O)NC1CCCC1(C)C` (centres undefined), the cytotoxicity at 70.5 h is -6.64%. `CS(=O)(=O)CCCNCc1c(Cl)cccc1N1CCCC1`: the cytotoxicity at 70.5 h was -10.5%. Then `Cc1cc(NCc2cccc(C#N)c2)ccc1Br`, with -7.27%; and `Cc1cc(NCc2cccc(C#N)c2)ccc1C(=O)N(C)C`, with -9.77%; and `CC(C)N(Cc1ccc(Cl)c(Cl)c1)C(=O)CCn1cncn1`, with -2.22%. With `O=C(c1cnccn1)N(CCO)Cc1cc(Br)ccc1F`, the cytotoxicity at 70.5 h is -5.51%. Take `CN1CCC(C)(CNC(=O)c2ccc(SCc3cccnc3)cc2)CC1`: the cytotoxicity at 70.5 h was -9.14%. Then `CN1CCN(c2cccc(Cl)c2CNCCS(C)(=O)=O)CC1`, with -8.06%; and `NC(=O)CCNCc1c(Cl)cccc1N1CCCC1`, with -6.13%. `Cc1ccc(CNC(=O)CCN2CCN(c3ccccn3)CC2)n1C`: the cytotoxicity at 70.5 h stood at 21.9%. Regarding `COCCNC(C)c1ccc(-c2cccnc2)cc1` (centres undefined), the cytotoxicity at 70.5 h came to 0.821%. Then `CN(C(=O)NCCCNc1ccccn1)C1CCS(=O)(=O)C1` (centres undefined), with -10.6%; and `O=C(NCC1CCS(=O)(=O)C1)Nc1ccccn1` (centres undefined), with 3.81%; and `O=C(Nc1ccc2c(c1)OC1(CCCCC1)O2)c1ccc(=O)[nH]n1`, with 0.889%. Then `CC1CN(c2ccc(CNC(=O)NCCO)cn2)CCO1` (centres undefined), with -8.22%; and `N#Cc1cc(F)c(NCCc2ccc(F)cc2)c(F)c1`, with -2.9%; and `CN(C)c1ncc(CNC(=O)Nc2ccc(C(F)(F)F)cc2)n1C`, with -2.76%.

As for `N#Cc1cc(F)c(NCCc2cccnc2)c(F)c1`, the cytotoxicity at 70.5 h was -4.91%. Regarding `CC(C)(C)C(=O)c1ccsc1NC(=O)CCNC(=O)c1ccco1`, the cytotoxicity at 70.5 h is -5.13%. Then `CN(C)C(C(=O)Nc1nccs1)c1c(F)cccc1Cl` (centres undefined), with -0.246%. In the case of `CN(c1ccc(CNc2c(Cl)cccc2C#N)cc1)S(C)(=O)=O`, the cytotoxicity at 70.5 h was -1.4%. For `Cc1c(C(=O)NC2CC(C)(C)NC(C)(C)C2)cnn1-c1ccc(F)cc1`, the cytotoxicity at 70.5 h was -2.72%. As to `CN(C1CCCC1)C(C)(C)C(=O)NCCS(C)(=O)=O`, the cytotoxicity at 70.5 h was 2.52%. Take `Cc1cc(CNc2ccnn2CC(C)C)ccc1-n1cncn1`: the cytotoxicity at 70.5 h came to 7.96%. Regarding `CCN(Cc1noc(CC(C)C)n1)Cc1ccccc1Cl`, the cytotoxicity at 70.5 h is 1.69%. Turning to `Cc1ccc2cc(C(=O)N3CCN(C(=O)N(C)C)CC3)ccc2n1`, the cytotoxicity at 70.5 h is -2.65%. Then `CCc1ccc(C(=O)NCc2ccnc(C)n2)cc1`, with -8.72%; and `O=C(c1cnc2[nH]c(=O)[nH]c(=O)c2c1)N1CCCC1C1CCCC1` (centres undefined), with -11.9%; and `Cn1c(=O)[nH]c(=O)c2cc(C(=O)N3CCCC3C3CCCC3)cnc21` (centres undefined), with 22.8%. `CCN(c1ccc(C(=O)NCc2ccnc(C)n2)cc1)C(C)C`: the cytotoxicity at 70.5 h was -8.68%. Then `O=C(c1cnc2[nH]c(=O)[nH]c(=O)c2c1)N1CCCC1C1CCCCC1` (centres undefined), with -5.02%; and `CC1CN(Cc2cccc(C#N)c2)CCN1c1ccc2nncn2n1` (centres undefined), with -5.84%. Take `CC1CN(c2ccc(C#N)cn2)CCN1c1ccc2nncn2n1` (centres undefined): the cytotoxicity at 70.5 h is -4.47%. With `O=C1CC(NS(=O)(=O)c2ccccc2)CN1Cc1ccccc1` (centres undefined), the cytotoxicity at 70.5 h was -5.96%. On to `CCOc1ccc(C#N)cc1NC(=O)N1CCOC(C(N)=O)C1` (centres undefined), for which the cytotoxicity at 70.5 h turned out to be 23%.

As for `N#Cc1ccc(N2CCN(c3ccc4nncn4n3)CC2)nc1`, the cytotoxicity at 70.5 h is -2%. Then `c1ccc2[nH]c(C3CCN(Cc4nnc(C5CC5)o4)CC3)nc2c1`, with -5.81%.

Consider `CC(C)(CNc1ccc(C#N)c(C(F)(F)F)c1)C(N)=O`, for which the cytotoxicity at 70.5 h came to 2.06%.

As to `O=C(CN1CCSCC1c1ccccc1)N1CCOCC1` (centres undefined), the cytotoxicity at 70.5 h is -3.64%. Then `Cc1nn(C)c(C)c1CCC(=O)Nc1cn(C)c(=O)n(C)c1=O`, with -1.93%; and `CN(CC(F)(F)F)C(=O)CNC(=O)Cc1ccccc1O`, with 5.05%; and `Cc1oc(C(=O)O)cc1S(=O)(=O)Nc1cccc(-n2nccc2C)c1`, with -5.02%. As to `CC(C)(C)NC(=O)CNc1ccc(C#N)c(C(F)(F)F)c1`, the cytotoxicity at 70.5 h is -5.25%.

Turning to `CN(CC(F)(F)F)C(=O)CNC(=O)Cc1cccc(O)c1`, the cytotoxicity at 70.5 h was determined as 1.12%. `Cc1cc(CCC(=O)N2CCOCC2)ccc1Br`: the cytotoxicity at 70.5 h was -5.28%.

Regarding `CC(NCc1cccc(S(=O)(=O)N(C)C)c1)c1ccccn1` (centres undefined), the cytotoxicity at 70.5 h was -6.92%. For the compound `CN(CC(F)(F)F)C(=O)CNC(=O)Cc1ccc(O)cc1Cl`, the cytotoxicity at 70.5 h is -9.7%.

For `Cc1ccc(CCC(=O)N2CCOCC2)cc1Cl`, the cytotoxicity at 70.5 h was -6.51%. Then `COC1CCCN(C(=O)c2sc(CC(C)C)nc2C)C1` (centres undefined), with -6.5%; and `CSC(C)(C)CNC(=O)NCC[S+]([O-])c1ccccc1F` (centres undefined), with -9.35%. Then `CN(C)C(=O)CC1CCOc2ccccc21` (centres undefined), with 0.971%; and `c1ccc(-c2noc(C3CCN(CCCn4cncn4)CC3)n2)cc1`, with 0.0875%. With `CC(Cn1cccn1)NCc1csc(-c2ccccc2)n1` (centres undefined), the cytotoxicity at 70.5 h was -3.84%. Turning to `CC(C)c1nnc2n1CCN(C(=O)c1ccc3c(c1)NC(=O)CO3)C2`, the cytotoxicity at 70.5 h is -2.96%. Then `c1ccc(-c2noc(C3CCN(CCn4cccn4)CC3)n2)cc1`, with 12.8%. Then `COCCN1CCC(c2nc3ccccc3[nH]2)CC1`, with -11%. Then `Cc1cnn(CC2CCCN2C(=O)Cc2cn3ccsc3n2)c1` (centres undefined), with -6.38%. On to `CNC(=O)Cc1noc(Cc2cccc(Br)c2)n1`, for which the cytotoxicity at 70.5 h is -9.45%. As for `CCOCc1ccccc1NC(=O)NC1CCN(c2ncccn2)CC1`, the cytotoxicity at 70.5 h is -6.67%.

Consider `O=C(O)c1ccc(S(=O)(=O)Nc2cccc(CC(F)(F)F)c2)c(F)c1`, for which the cytotoxicity at 70.5 h is -7.64%. Then `Cn1cc(NC(=O)c2cc[nH]n2)cc(Cl)c1=O`, with -5.18%; and `O=C(NCCc1nnc2n1CCC2)N1CCC2(CCCCC2)C1`, with -0.937%. In the case of `Cn1cc(NC(=O)c2ccccn2)cc(Cl)c1=O`, the cytotoxicity at 70.5 h was -7.7%. For the compound `O=C(NCCc1nnc2n1CCCCC2)N1CCC2(CCCC2)CC1`, the cytotoxicity at 70.5 h is -7.24%.

As for `CC(C)CC(C)N(C)C(=O)CCn1cccn1` (centres undefined), the cytotoxicity at 70.5 h was -6.33%. Then `c1cnn(CCNCc2csc(-c3ccc4c(c3)OCO4)n2)c1`, with -1.83%; and `CCN(C)c1ccc(CNS(=O)(=O)CC2CCCO2)cc1F` (centres undefined), with -16%. Then `CN(Cc1cccc(F)c1)C(=O)c1ccncc1Cl`, with -18.9%; and `CCCn1nnnc1CN(c1ccc(C)cc1)C(C)C`, with -5.93%; and `CN(Cc1cccc(OC(F)(F)F)c1)C(=O)c1ccncc1F`, with -4.4%. For the compound `Cc1cc(C)n(CC2CCCN2C(=O)Cc2cn3ccccc3n2)n1` (centres undefined), the cytotoxicity at 70.5 h was -3.71%. Then `COc1ccc(-c2nc(CNC(C)Cn3cccn3)cs2)cc1` (centres undefined), with -12.5%.

As to `CC(NCC(F)(F)F)c1ccc(S(C)(=O)=O)c(F)c1` (centres undefined), the cytotoxicity at 70.5 h is 12.5%. With `CC(=O)c1cccc(NCC(=O)NC(N)=O)c1`, the cytotoxicity at 70.5 h worked out at 27.4%.
